Among the data in PubChem BioAssay (NCI) are GI50 and TGI values, retold here.

The structures appear in SMILES notation. Several values for one entry are separate records, joined by “and”; a condition that tells them apart may be missing. Identical values can stand only once.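 How tested: cells in 96-well plates exposed to compound for 48 hours at five concentrations. GI50 is the concentration that inhibits growth by half. TGI is the concentration that stops growth completely.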

One experiment concerns ACHN renal. In words: inhibition of tumour cell growth, NCI panel, 48 h.
`O=C(c1ccc(F)c(F)c1Nc1ccc(I)cc1F)N1CC(O)([C@@H]2CCCCN2)C1`: the GI50 was 0.463 µM and 0.637 µM; the TGI is 15.1 µM and > 10 µM.

On to `Oc1cc(O)c2c(c1)OC(c1ccc(O)c(O)c1)C(OC1(c3cc(O)c(O)c(O)c3)Oc3cc(O)cc(O)c3C(O)C1O)C2` (stereo not given), for which the TGI was greater than 100 µM.

`CCOc1ccc2nc(S/C(=C/C=C(C#N)C#N)c3ccc(C)cc3)sc2c1`: the GI50 was 18.4 µM and the TGI is 36.9 µM.

The compound `COc1ccc(NC(=O)/C(N=O)=C(/C)O)cc1` had a TGI greater than 100 µM.

Compound `CC(=O)OC12c3ccccc3-c3ccccc3C1C1C(=O)N(C)C(=O)C12Cl` (stereo not given) showed a TGI greater than 10 µM.

Regarding `CCN(CC)CCOc1ccc(/C=C2\CC3C4CC=C5C[C@@H](O)CC[C@]5(C)C4CC[C@]3(C)C2=O)cc1OC` (stereo not given in full), the GI50 was 1.77 µM and the TGI came to 3.32 µM.

Regarding `COc1ccc(-c2cc(-c3ccccc3)c(C#N)c(=O)n2C2OC(CO)C(O)C(O)C2O)cc1` (stereo not given), the TGI was greater than 100 µM.

Regarding `O=C(O)CSc1n[nH]c(-c2ccccc2)n1`, the TGI is greater than 100 µM.

Turning to `CCc1cccc(C)c1NC(=O)C(=O)Cc1nc2ccccc2o1`, the TGI was greater than 100 µM.

In turn, `O=C(O)[C@H](NS(=O)(=O)c1ccc2ccccc2c1)c1ccccc1` gave a TGI greater than 100 µM.

With `CCOc1ccc2c(c1)[n+]([O-])c(-c1ccccc1Cl)c(N)[n+]2[O-]`, the TGI was greater than 100 µM.

`O=C1c2ccccc2C2(O)c3cc4ccccc4cc3OC12O` (stereo not given) yielded a TGI greater than 100 µM.

`CN(C)c1c([O-])c(=[N+](C)C)c1=O` came in with a TGI greater than 100 µM.

In the next experiment the test system is COLO 205 colon. In words: inhibition of tumour cell growth, NCI panel, 48 h.
As for `Nc1nccc2c1ccn2-c1ccc(NC(=O)c2ccc(N3CCOCC3)c(C(F)(F)F)c2)cc1`, the GI50 was 0.297 µM and the TGI turned out to be 0.871 µM.

`Cc1[nH]c2ccccc2c1-c1cc(-c2cc(-c3c(C)[nH]c4ccccc34)on2)no1` gave a TGI greater than 100 µM.

As to `Cn1cnc([N+](=O)[O-])c1S(=O)(=O)Oc1ccccc1`, the GI50 was 1.68 µM and the TGI was 3.29 µM.

As to `COc1cc(C2c3cc4c(cc3C(O)C(CO)C2CO)OCO4)cc(OC)c1OC` (stereo not given), the GI50 was 0.725 µM and the TGI was determined as 5.76 µM.

For the compound `O=c1n(-c2ccccc2)c(=O)n2n1C1C=CC2C2C(C1)C2(Cl)Cl` (stereo not given), the TGI is greater than 100 µM.

As for `CCCNC(=S)/N=C/c1c(O)c2ccccc2[nH]c1=O`, the TGI is greater than 100 µM.

Turning to `COC1C(O)=C2C(=O)O/C(C)=C/C=C/C=C/C=C\CC(c3ccccc3)NC(=O)\C=C/C=C\C=C\C=C\[C@@]2(C)[C@@H]1O` (stereo not given in full), the TGI was 0.0564 µM.

In the case of `COc1ccc(-c2oc(=O)ccc2-c2cc(OC)c(OC)c(OC)c2)cc1F`, the GI50 was 18 µM and the TGI is greater than 100 µM.

Take `O=C(c1ccc(F)c(F)c1Nc1ccc(I)cc1F)N1CC(O)([C@@H]2CCCCN2)C1`: the GI50 was < 0.01 µM and 0.00238 µM; the TGI was found to be 4.06 µM.

Consider `Oc1cc(O)c2c(c1)OC(c1ccc(O)c(O)c1)C(OC1(c3cc(O)c(O)c(O)c3)Oc3cc(O)cc(O)c3C(O)C1O)C2` (stereo not given), for which the TGI was greater than 85.9 µM.

For `CCOc1ccc2nc(S/C(=C/C=C(C#N)C#N)c3ccc(C)cc3)sc2c1`, the GI50 is 25.8 µM and the TGI was greater than 100 µM.

`CC(=O)OC12c3ccccc3-c3ccccc3C1C1C(=O)N(C)C(=O)C12Cl` (stereo not given) yielded a TGI greater than 10 µM.

`COc1ccc(-c2cc(-c3ccccc3)c(C#N)c(=O)n2C2OC(CO)C(O)C(O)C2O)cc1` (stereo not given) returned a TGI greater than 100 µM.

Turning to `O=C(O)CSc1n[nH]c(-c2ccccc2)n1`, the TGI is greater than 100 µM.

`CCc1cccc(C)c1NC(=O)C(=O)Cc1nc2ccccc2o1`: the TGI was greater than 100 µM.

For `O=C(O)[C@H](NS(=O)(=O)c1ccc2ccccc2c1)c1ccccc1`, the TGI is greater than 100 µM.

Regarding `CCOc1ccc2c(c1)[n+]([O-])c(-c1ccccc1Cl)c(N)[n+]2[O-]`, the TGI is greater than 100 µM.

Consider `O=C1c2ccccc2C2(O)c3cc4ccccc4cc3OC12O` (stereo not given), for which the TGI was greater than 100 µM.

The next experiment relates to HCT-116 colon. In words: inhibition of tumour cell growth, NCI panel, 48 h.
On to `Nc1nccc2c1ccn2-c1ccc(NC(=O)c2ccc(N3CCOCC3)c(C(F)(F)F)c2)cc1`, for which the GI50 is 0.873 µM and the TGI came out at 11.1 µM.

Compound `Cc1[nH]c2ccccc2c1-c1cc(-c2cc(-c3c(C)[nH]c4ccccc34)on2)no1` displayed a TGI greater than 100 µM.

`Cn1cnc([N+](=O)[O-])c1S(=O)(=O)Oc1ccccc1`: the GI50 was 5.37 µM and the TGI amounted to 13.2 µM.

On to `COc1cc(C2c3cc4c(cc3C(O)C(CO)C2CO)OCO4)cc(OC)c1OC` (stereo not given), for which the GI50 was 0.492 µM and the TGI is greater than 100 µM.

Compound `O=c1n(-c2ccccc2)c(=O)n2n1C1C=CC2C2C(C1)C2(Cl)Cl` (stereo not given) came in with a TGI greater than 100 µM.

Take `CCCNC(=S)/N=C/c1c(O)c2ccccc2[nH]c1=O`: the TGI was greater than 100 µM.

In turn, `COC1C(O)=C2C(=O)O/C(C)=C/C=C/C=C/C=C\CC(c3ccccc3)NC(=O)\C=C/C=C\C=C\C=C\[C@@]2(C)[C@@H]1O` (stereo not given in full) registered a TGI of 0.0198 µM.

On to `COc1ccc(-c2oc(=O)ccc2-c2cc(OC)c(OC)c(OC)c2)cc1F`, for which the GI50 was 10.9 µM and the TGI was greater than 100 µM.

`O=C(c1ccc(F)c(F)c1Nc1ccc(I)cc1F)N1CC(O)([C@@H]2CCCCN2)C1`: the GI50 was < 0.0295 µM and 0.0851 µM; the TGI was 11.9 µM and > 10 µM.

Consider `Oc1cc(O)c2c(c1)OC(c1ccc(O)c(O)c1)C(OC1(c3cc(O)c(O)c(O)c3)Oc3cc(O)cc(O)c3C(O)C1O)C2` (stereo not given), for which the TGI was determined as 62 µM.

As for `CCOc1ccc2nc(S/C(=C/C=C(C#N)C#N)c3ccc(C)cc3)sc2c1`, the GI50 is 17.3 µM and the TGI was 31.6 µM.

Take `COc1ccc(NC(=O)/C(N=O)=C(/C)O)cc1`: the TGI is greater than 100 µM.

On to `CCN(CC)CCOc1ccc(/C=C2\CC3C4CC=C5C[C@@H](O)CC[C@]5(C)C4CC[C@]3(C)C2=O)cc1OC` (stereo not given in full), for which the GI50 is 2.44 µM and the TGI stood at 8.79 µM.

In turn, `COc1ccc(-c2cc(-c3ccccc3)c(C#N)c(=O)n2C2OC(CO)C(O)C(O)C2O)cc1` (stereo not given) registered a TGI greater than 100 µM.

In turn, `CCc1cccc(C)c1NC(=O)C(=O)Cc1nc2ccccc2o1` displayed a TGI greater than 100 µM.

With `CCOc1ccc2c(c1)[n+]([O-])c(-c1ccccc1Cl)c(N)[n+]2[O-]`, the TGI is greater than 100 µM.

In the case of `O=C1c2ccccc2C2(O)c3cc4ccccc4cc3OC12O` (stereo not given), the TGI was greater than 100 µM.

For the compound `CN(C)c1c([O-])c(=[N+](C)C)c1=O`, the TGI was greater than 100 µM.
